Results on 37 compounds are retold here after patent publication US10414768B2, “Compounds for treating cystic fibrosis” (CENTRE NATIONAL DE LA RECHERCHE SCIENTIFIQUE (CNRS), priority 2014, dated 2019).

Structures are written as SMILES. Some results are limits rather than exact numbers.

The target of the first test is T1, F508del-CFTR (Homo sapiens, UniProt P13569, DEL508-508).
T1 construct: expressed in transfected cells; host or cells: HeLa cells (spTCF-ΔF), selected with Zeocin
T1 sequence (P13569 with tags, fused parts or gaps DEL508-508): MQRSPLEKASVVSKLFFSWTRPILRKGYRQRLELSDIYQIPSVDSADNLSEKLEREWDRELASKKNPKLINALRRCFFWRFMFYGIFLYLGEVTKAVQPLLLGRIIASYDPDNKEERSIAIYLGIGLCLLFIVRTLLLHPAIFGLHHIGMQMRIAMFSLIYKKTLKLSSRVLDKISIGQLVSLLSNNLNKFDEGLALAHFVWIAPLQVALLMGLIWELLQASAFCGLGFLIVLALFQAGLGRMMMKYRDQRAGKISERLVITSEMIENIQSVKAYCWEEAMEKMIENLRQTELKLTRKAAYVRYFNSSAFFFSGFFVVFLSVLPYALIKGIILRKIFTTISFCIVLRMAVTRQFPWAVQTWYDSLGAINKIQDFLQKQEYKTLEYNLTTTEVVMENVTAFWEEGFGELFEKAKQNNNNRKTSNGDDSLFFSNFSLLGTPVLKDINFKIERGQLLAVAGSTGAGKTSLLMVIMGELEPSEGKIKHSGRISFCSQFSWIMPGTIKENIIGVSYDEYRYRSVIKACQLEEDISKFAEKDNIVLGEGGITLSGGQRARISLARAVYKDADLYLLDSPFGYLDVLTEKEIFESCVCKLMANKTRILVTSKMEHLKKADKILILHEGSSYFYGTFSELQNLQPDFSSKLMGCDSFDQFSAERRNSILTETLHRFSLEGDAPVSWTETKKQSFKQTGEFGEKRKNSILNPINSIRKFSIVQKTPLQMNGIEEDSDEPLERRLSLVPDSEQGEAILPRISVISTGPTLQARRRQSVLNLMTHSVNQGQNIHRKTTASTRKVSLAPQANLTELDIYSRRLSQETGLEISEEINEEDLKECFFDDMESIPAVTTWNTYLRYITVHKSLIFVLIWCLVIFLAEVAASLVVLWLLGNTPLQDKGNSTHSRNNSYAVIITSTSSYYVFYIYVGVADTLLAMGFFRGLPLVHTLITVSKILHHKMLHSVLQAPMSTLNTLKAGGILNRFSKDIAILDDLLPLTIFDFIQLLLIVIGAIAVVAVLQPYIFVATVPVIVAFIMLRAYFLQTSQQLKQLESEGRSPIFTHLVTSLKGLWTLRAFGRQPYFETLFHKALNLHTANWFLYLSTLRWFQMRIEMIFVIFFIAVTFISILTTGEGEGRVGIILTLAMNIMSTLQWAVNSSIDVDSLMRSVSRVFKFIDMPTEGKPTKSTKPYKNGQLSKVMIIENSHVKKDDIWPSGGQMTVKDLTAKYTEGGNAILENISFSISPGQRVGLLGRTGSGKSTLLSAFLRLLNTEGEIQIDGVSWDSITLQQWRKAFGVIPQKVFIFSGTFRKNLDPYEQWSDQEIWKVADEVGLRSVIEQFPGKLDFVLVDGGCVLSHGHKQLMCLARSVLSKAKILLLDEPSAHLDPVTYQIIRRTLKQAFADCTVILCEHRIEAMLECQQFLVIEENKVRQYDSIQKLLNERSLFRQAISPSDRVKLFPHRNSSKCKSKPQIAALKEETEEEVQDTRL
Nature of the test: Iodide (125I) efflux from HeLa cells expressing F508del-CFTR. The test is classed as cell-based. The settings on record: HeLa, activators Fsk 10 μM + Gst 30 μM, relative to VX809 normalized at 100%, untreated cells 3.6%. On the procedure:
Pharmacology, chemicals and reagents. The CFTR activator forskolin and potentiator genistein (Illek et al., 1995) were purchased from LC Laboratories (PKC Pharmaceuticals, Woburn, Mass.). We purchased DIDS (5-Isothiocyanato-2-[2-(4-isothiocyanato-2-sulfophenyl)ethenyl]benzene-1-sulfonic acid) and VX809 (3-(6-(1-(2,2-difluorobenzo[d][1,3]dioxol-5-yl)cyclopropanecarboxamido)-3-methylpyridin-2-yl)benzoic acid) from Selleckchem (Houston, USA). Stock solutions of F (10 mM), G (30 mM), CFTRinh-172 (10 mM), VX809 (10 mM), were prepared in DMSO. We prepared stock solution of iminosugars, miglustat and IsoLAB ([1,4-dideoxy-2-hydroxymethyl-1,4-imino-L-threitol]) dissolved in water (100 mM) before further dilution. Methods Cell culture. HeLa cells expressing wild-type CFTR (spTCF-wt) or F508del-CFTR (spTCF-ΔF) were cultured in Dulbecco's modified Eagle's medium+GlutaMAX™-I (Invitrogen) supplemented with 8% (v/v) fetal bovine serum (FBS), 1% (v/v) penicillin/streptomycin and were selected using Zeocin (50 μg/mL). Both cell lines were grown in standard culture conditions (37° C., 5% C02). Cells were plated in 35 mm plastic dishes for whole-cell patch-clamp recordings and western blot analysis and in 96-well plates for cytotoxicity assay. For all cell culture, culture media were renewed every 2 days. Western Blot analysis. Cell lysates (10 mM Tris, 1% Nonidet P-40, 0.5% sodium deoxycholate, pH 7.5) were separated 72 h after seeding for HeLa cells by 5% SDS-PAGE (50 μg of protein/well). After saturation, nitrocellulose membrane was incubated overnight at 4° C. in phosphate-buffered saline, 0.1% Tween 20 with 1 μg/ml mouse anti-CFTR monoclonal antibody (clone MAB3480; Chemicon International, Millipore Bioscience Research Reagents, Temecula, Calif.). After washing, goat peroxidase-conjugated anti-mouse IgG (1:10 000; Sigma-Aldrich) was used as secondary antibody. CFTR was visualized by chemiluminescence with ECL Western blotting detection reagent (GE Healthcare, Buckinghamshire, UK). Iodide efflux. CFTR chloride channel activity was assayed by measuring the rate of iodide (^125I) efflux from living cells. All experiments were performed with a MultiPROBE® IIex robotic liquid handling system (Perkin Elmer Life Sciences, Courtaboeuf, France). At the beginning of each experiment, cells were washed twice with efflux buffer containing (in mM) 136.9 NaCl, 5.4 KCl, 0.3 KH2PO4, 0.3 NaH2PO4, 1.3 CaCl2, 0.5 MgCl2, 0.4 MgSO4, 5.6 glucose and 10 HEPES, pH 7.4. Cells were incubated in efflux buffer containing Na^125I (1 μCi Na^125I/ml, NEN, Boston, Mass.) during 1 h at 37° C., then washed with efflux medium to remove extracellular ^125I. The loss of intracellular ^125I was determined by removing the medium with efflux buffer every 1 min for up to 10 min. The first three aliquots were used to establish a stable baseline in efflux buffer alone. A medium containing the activators of CFTR (Fsk 10 μM+Gst 30 μM) and the appropriate drug was used for the remaining aliquots. Residual radioactivity was extracted with 0.1 N NaOH/0.1% SDS, and determined using a Packard Cobra™ II gamma counter (Perkin Elmer life Sciences, Courtaboeuf, France). The fraction of initial intracellular ^125I lost during each time point was collected and time-dependent rates of ^125I efflux calculated from: ln (^125It1/^125It2)/(t1−t2) where ^125It is the intracellular ^125I at time t, and t1 and t2 successive time points. Curves were constructed by plotting rate of 125I versus time. All comparisons were based on maximal values for the time-dependent rates (k=peak rates, min−1) excluding the points used to establish the baseline (kpeak−kbasal, min^−1), and histograms were presented as percentage of activation. Time dependence. Time dependence of the compounds was assayed by measuring the time necessary for an optimal correction of the protein F508del-CFTR. […]
On to `NC(=O)c1ccc(-n2cnc3c(NC(CO)CO)nc(Cl)nc32)cc1` [Compound 21, 4-(2-chloro-6-((1,3-dihydroxypropan-2-yl)amino)-9H-purin-9-yl)benzamide], for which the Emax is at least 60%.

As to `Nc1nc(Cl)nc2c1ncn2-c1ccc(CO)cc1` [Compound 54, (4-(6-amino-2-chloro-9H-purin-9-yl)phenyl)methanol], the Emax is at least 60%.

Turning to `NC(=O)c1ccc(Nc2ncnc(Cl)c2[N+](=O)[O-])cc1` [Compound 106, 4-((6-chloro-5-nitropyrimidin-4-yl)amino)benzamide], the Emax lay in the range of 10 to 35%.

For `Cc1nc(Cl)c(N)c(Nc2ccc(C(N)=O)cc2)n1` [Compound 65, 4-((5-amino-6-chloro-2-methylpyrimidin-4-yl)amino)benzamide], the Emax was 35 to 60%.

Regarding `COc1nc(N)nc2c1ncn2-c1ccc(C(N)=O)cc1` [Compound 62, 4-(2-amino-6-methoxy-9H-purin-9-yl)benzamide], the Emax was 10 to 35%.

Take `Clc1nc(Cl)c2ncn(-c3ccccc3)c2n1` [Compound 80, 2,6-dichloro-9-phenyl-9H-purine]: the maximal response (Emax) is 10 to 35%.

In the case of `Nc1c(Cl)ncnc1Cl` [Compound 47, 4,6-dichloropyrimidin-5-amine], the Emax is at least 60%.

Regarding `NC(=O)c1ccc(Nc2nc(N)nc3c2ncn3-c2ccc(C(N)=O)cc2)cc1` [Compound 28, 4-(2-amino-6-((4-carbamoylphenyl)amino)-9H-purin-9-yl)benzamide], the Emax fell in the range of 35 to 60%.

For the compound `Nc1nc(Cl)nc2c1ncn2Cc1ccccc1` [Compound 2, 9-benzyl-2-chloro-9H-purin-6-amine], the Emax fell in the range of 10 to 35%.

Consider `NC(=O)c1ccc(-n2cnc3c(Cl)ncnc32)cc1` [Compound 16, 4-(6-chloro-9H-purin-9-yl)benzamide], for which the Emax lay within 10 to 35%.

For `COc1ccc(CNc2nc(NCCCCc3ccccc3)nc3[nH]cnc23)cc1` [Compound 58, N6-(4-methoxybenzyl)-N2-(4-phenylbutyl)-9H-purine-2,6-diamine], the Emax lay within 35 to 60%.

As for `COc1ccc(CNc2nc(OCCc3ccccc3)nc3[nH]cnc23)cc1` [Compound 12, N-(4-methoxybenzyl)-2-phenethoxy-9H-purin-6-amine], the Emax lay within 10 to 35%.

For the compound `NC(=O)c1ccc(Nc2ncccc2N)cc1` [Compound 115, 2-((4-carbamoylphenyl)amino)-pyridin-3-aminium chloride], the maximal response (Emax) is at least 60%.

As to `NC(=O)c1cccc(-n2cnc3c(Cl)nc(Cl)nc32)c1` [Compound 95, 3-(2,6-dichloro-9H-purin-9-yl)benzamide], the Emax lay in the range of 10 to 35%.

As for `NC(=O)c1ccc(-n2cnc3cnc(N)nc32)cc1` [Compound 63, 4-(2-amino-9H-purin-9-yl)benzamide], the maximal effect (Emax) was in the range of 10 to 35%.

With `NC(=O)c1ccc(-n2cnc3c(N)nc(Cl)nc32)cc1` [Compound 18, 4-(6-amino-2-chloro-9H-purin-9-yl)benzamide], the maximal response (Emax) lay within 35 to 60%.

For the compound `CN(c1ccc(C(=O)O)cc1)c1ncnc(Cl)c1[N+](=O)[O-]` [Compound 123, 4-((6-chloro-5-nitropyrimidin-4-yl)(methyl)amino)benzoic acid], the Emax was 10 to 35%.

Consider `NC(=O)c1ccc(Cn2cnc3c(N[C@@H](CO)C(=O)O)nc(Cl)nc32)cc1` [Compound 119, (S)-2-((9-(4-carbamoylbenzyl)-2-chloro-9H-purin-6-yl)amino)-3-hydroxypropanoic acid], for which the maximum response (Emax) was in the range of 35 to 60%.

Take `O=[N+]([O-])c1c(O)nc(O)nc1Cl` [Compound 103, 6-chloro-5-nitropyrimidine-2,4-diol]: the Emax was in the range of 10 to 35%.

For `Nc1nc(OCCCc2ccccc2)nc2[nH]cnc12` [Compound 53, 2-(3-phenylpropoxy)-9H-purin-6-amine], the maximal effect (Emax) was in the range of 10 to 35%.

`NC(=O)c1ccc(-c2ccnc3ccccc23)cc1` [Compound II-1, 4-(quinolin-4-yl)benzamide]: the Emax was at least 60%.

In the case of `Nc1nc(O)c2ncn(-c3ccccc3)c2n1` [Compound 92, 2-amino-9-phenyl-9H-purin-6-ol], the Emax is 10 to 35%.

With `NC(=O)c1ccc(Oc2ncnc(Cl)c2N)cc1` [Compound 55, 4-((5-amino-6-chloropyrimidin-4-yl)oxy)benzamide], the Emax was at least 60%.

In the case of `CN(c1ccc(C(N)=O)cc1)c1ncnc(Cl)c1[N+](=O)[O-]` [Compound 125, 4-((6-chloro-5-nitropyrimidin-4-yl)(methyl)amino)benzamide], the Emax is at least 60%.

In the case of `NC(=O)c1ccc(Nc2ccncc2[N+](=O)[O-])cc1` [Compound 105, 4-((3-nitropyridin-4-yl)amino)benzamide], the Emax is at least 60%.

For `CN(c1ccc(C(N)=O)cc1)c1ncnc(Cl)c1N` [Compound 126, 4-((5-amino-6-chloropyrimidin-4-yl)(methyl)amino)benzamide], the Emax is at least 60%.

Turning to `COc1ccc(CNc2nc(NCCCc3ccccc3)nc3c2ncn3Cc2ccccc2)cc1` [Compound 5, 9-benzyl-N^6-(4-methoxybenzyl)-N^2-(3-phenylpropyl)-9H-purine-2,6-diamine], the maximal response (Emax) fell in the range of 35 to 60%.

Consider `NC(=O)c1ccc(-c2nc(N)nc3[nH]cnc23)cc1` [Compound 113, 4-(2-amino-9H-purin-6-yl)benzamide], for which the Emax is at least 60%.

Turning to `C[C@H](Nc1nc(NCCCc2ccccc2)nc2c1ncn2-c1ccccc1)C(=O)O` [Compound 83, (S)-2-((9-phenyl-2-((3-phenylpropyl)amino)-9H-purin-6-yl)amino)propanoic acid], the Emax fell in the range of 10 to 35%.

Turning to `NC(=O)c1ccc(-n2cnc3c(NCC(=O)O)nc(Cl)nc32)cc1` [Compound 23, 2-((9-(4-carbamoylphenyl)-2-chloro-9H-purin-6-yl)amino)acetic acid], the maximal response (Emax) is at least 60%.

Regarding `Nc1ncnc(N)c1N` [Compound 102, pyrimidine-4,5,6-triamine], the Emax was at least 60%.

For `CC(=O)c1ccc(-n2cnc3c(Cl)nc(Cl)nc32)cc1` [Compound 86, 1-(4-(2,6-dichloro-9H-purin-9-yl)phenyl)ethanone], the maximal response (Emax) was 10 to 35%.

In the case of `C[C@H](Nc1nc(NCCCc2ccccc2)nc2c1ncn2-c1ccc(CO)cc1)C(=O)O` [Compound 57, (S)-2-((9-(4-(hydroxymethyl)phenyl)-2-((3-phenylpropyl)amino)-9H-purin-6-yl)amino)propanoic acid], the maximum response (Emax) was at least 60%.

Consider `C[C@H](Nc1nc(Cl)nc2c1ncn2-c1ccccc1)C(=O)OC(C)(C)C` [Compound 81, (S)-tert-butyl 2-((2-chloro-9-phenyl-9H-purin-6-yl)amino)propanoate], for which the maximal response (Emax) lay within 10 to 35%.

Consider `COc1ccc(CNc2nc(Cl)nc3c2ncn3Cc2ccc(C(N)=O)cc2)cc1` [Compound 89, 4-((2-chloro-6-((4-methoxybenzyl)amino)-9H-purin-9-yl)methyl)benzamide], for which the Emax was 10 to 35%.

Consider `COc1ccc(-n2cnc3c(O)nc(N)nc32)cc1OC` [Compound 91, 2-amino-9-(3,4-dimethoxyphenyl)-9H-purin-6-ol], for which the Emax is 10 to 35%.

The same test, now with this note: activators Fsk 10 μM + Gst 30 μM, relative to VX809 normalized at 100%, untreated cells 3.6%.
For `COC(=O)c1ccc(-n2cnc3c(OC(=O)NC(c4ccccc4)c4ccccc4)nc(NC(C)=O)nc32)cc1` [Compound 30, methyl 4-(2-acetamido-6-((benzhydrylcarbamoyl)oxy)-9H-purin-9-yl)benzoate], the Emax lay within 35 to 60%.
